Values of other authors as cited in US9877929B2, “Topical vitamin D and ubiquinol oral supplement compositions” (Premier Dental Products Company, priority 2011, dated 2018).

Tests used:
[1] = stable UBIQUINOL supplement

## COc1c(O)c(C)c(C/C=C(\C)CC/C=C(\C)CC/C=C(\C)CC/C=C(\C)CC/C=C(\C)CC/C=C(\C)CC/C=C(\C)CC/C=C(\C)CC/C=C(\C)CCC=C(C)C)c(O)c1OC [UBIQUINOL]
[1]
  water solubility: less than 0.1 mg/ml
Absorption from the gastrointestinal tract
  time required to reach peak concentration: approximately 6 hours
Oral treatment
  time to steady-state concentrations: two
orally, 150 mg per day of UBIQUINOL in a softgel, within 28 days
  peak blood values: 3.84 µg/mL
